# “And” between values parts separate entries of the source, which are not always exact repeats. Identical values can stand only once. Like-named read-outs stand apart in the source and are kept apart here.
# How the values were obtained:
# [1] = system: catalase (CAT); assay: Catalase activity of lysates of AAPH-stressed cells; format: cell-based, Human
# Method: (§1) Cells were seeded at 1 × 10^6 cells/plate in 60 mm tissue culture plates and allowed to grow for 24 h. In each plate, cells were washed twice with 4 mL of PBS (pH 7.2), and treated with 4 mL peptide samples (P1, P2, P6, P7) dissolved in culture media at 50 or 100 µM for 24 h. After removal of peptide solutions, cells were washed twice with 4 mL of PBS/plate and treated with 4 mL of […] dissolved in culture media and allowed to incubate for 24 h. Cells in each culture plate were harvested by incubation (5 min) with 0.5 mL of 0.25% trypsin, addition of 1 mL of culture media and centrifugation at 1000× g for 5 min. Cell pellets were washed with ice cold PBS (500 µL each) until no pink color was observed, re-suspended in ice cold PBS (300 µL) for the superoxide dismutase (SOD) assay, 500 µL for glutathione peroxidase (GPx) and catalase (CAT) assays. For total glutathione assay, 300 µL of 5% ice cold sulfosalicylic acid bubbled with 100% nitrogen was used for cell lysis. Cells were lysed by sonication on ice for 1 min using a probe-type sonicator (Vibra-Cell, Sonics and Materials Inc., Newtown, CT, USA) pulsing at 15 s on and 10 s off cycles. Following centrifugation of cell lysate at 13,000× g (4 °C), pellets containing cell debris were discarded, while supernatants were used for determination of glutathione content. Protein contents were determined using a modified Lowry assay. To measure the catalase activity, 1790 µL potassium phosphate buffer (50 mM, pH 7.0) was mixed with 200 µL cell lysate in a UV cuvette. Ten µL of H2O2 (30%) was added, and removal of H2O2 by catalase was followed at 240 nm using a Cary 50 Bio UV-Vis spectrophotometer with 18-cell changer (Varian Inc., Mississauga, ON, Canada). The activity was expressed as a percentage of control.
# [2] = system: glutathione (GSH) of HepG2 cells; assay: Cellular glutathione, enzymatic recycling method; format: cell-based, Human; conditions: treatment with AAPH alone, 24 h
# Method: as §1, with “assay.” for “assay. To measure the catalase activity, 1790 µL potassium phosphate buffer (50 mM, pH 7.0) was mixed with 200 µL cell lysate in a UV cuvette. Ten µL of H2O2 (30%) was added, and removal of H2O2 by catalase was followed at 240 nm using a Cary 50 Bio UV-Vis spectrophotometer with 18-cell changer (Varian Inc., Mississauga, ON, Canada). The activity was expressed as a percentage of control.”
# The assay was based on the enzymatic recycling method adjusted for 96-well plates. All solutions were prepared in sodium phosphate buffer (125 mM, pH 7.5) that contained 6.3 mM EDTA (ethylenediaminetetraacetic acid). In summary, 60 µL of 0.35 mM NADPH and 10 µL of 6 mM DTNB were added to wells, this was followed by the addition of 20 µL cell lysate or glutathione (GSH) standard. To initiate the reaction, 10 µL of glutathione reductase (5 IU/mL) was added and the rate of reaction between GSH from cell lysate and DTNB was measured at 412 nm. Total glutathione of cell lysates was calculated based on a standard curve of glutathione.
# [3] = system: glutathione peroxidase (GPx); assay: Glutathione peroxidase activity of lysates of AAPH-stressed cells; format: cell-based, Human; conditions: for Effect on GPx activity of AAPH-stressed cells: then AAPH 24 h
# Method: as §1, with “assay.” for “assay. To measure the catalase activity, 1790 µL potassium phosphate buffer (50 mM, pH 7.0) was mixed with 200 µL cell lysate in a UV cuvette. Ten µL of H2O2 (30%) was added, and removal of H2O2 by catalase was followed at 240 nm using a Cary 50 Bio UV-Vis spectrophotometer with 18-cell changer (Varian Inc., Mississauga, ON, Canada). The activity was expressed as a percentage of control.”
# The activity of GPx was determined as previously described in a 96-well plate. Briefly, in each well, 187.5 µL of potassium phosphate buffer was mixed with 12.5 µL NADPH (4 mM) solution and 25 µL of cell lysates or buffer (blank), and incubated at 30 °C for 5 min. Then, 100 µL of 0.15% cumene hydroperoxide was added in each well to begin the reaction. The rate of disappearance of NADPH was followed at 340 nm for 5 min. The activity was expressed as Units of GPx activity/mg protein.
# [4] = system: RAW 264.7 cells; conditions: peptides from fish; cited from earlier work
# Source text: The physiological role of GSH has long been of interest, particularly its antioxidant function due to the unique redox chemistry of its cysteinyl thiol residue. The oxidation of sulfhydryl groups on amino acids by ROS can lead to the formation of protein disulfide bonds, which can be reduced by GSH into individual sulfhydryl groups. GSH is also a substrate used by GPx in the reduction of peroxides and its concentration often reflects oxidative status of cells.
# [5] = system: HepG2 cells; format: cell-based, Human; conditions: then 20 mM AAPH 24 h, MTT; for Increase of viability of cells compared to PC: 100 µM peptide 24 h, p < 0.05; for Cytoprotective effect against AAPH-induced damage: 50 or 100 µM peptide 24 h
# Method: Human hepatocellular carcinoma (HepG2) cells were purchased from the American Type Culture Collection (ATCC; Manassas, VA, USA). They were cultured at 37 °C in a humidified incubator with 5% CO2 and 95% air. Dulbecco’s Minimal Essential Media (DMEM) supplemented with 10% (v/v) Fetal Bovine Serum was used for the maintenance of cells. […] The MTT (3-(4,5-dimethylthiazol-2-yl)-2,5-diphenyltetrazolium bromide) assay, as described in an earlier research, was used for cytotoxicity and cytoprotective tests. […] Following another 24 h incubation, cells were washed twice with 200 µL of PBS. Ten µL of MTT solution (5 mg/mL in PBS) and 100 µL of media were added to each well. After 1 h, MTT solution was removed, and 50 µL DMSO were added. Absorbances were recorded at 570 nm with 630 nm background subtraction using a BioTek Epoch™ microplate reader (Fisher Scientific, Nepean, ON, Canada). Untreated cells were used as negative control (NC) and cells treated with only AAPH were used as positive control (PC).
# [6] = system: superoxide dismutase (SOD); assay: Superoxide dismutase activity of lysates of AAPH-stressed cells; format: cell-based, Human; conditions: 50 µM peptide 24 h, then AAPH 24 h
# Method: as §1, with “assay.” for “assay. To measure the catalase activity, 1790 µL potassium phosphate buffer (50 mM, pH 7.0) was mixed with 200 µL cell lysate in a UV cuvette. Ten µL of H2O2 (30%) was added, and removal of H2O2 by catalase was followed at 240 nm using a Cary 50 Bio UV-Vis spectrophotometer with 18-cell changer (Varian Inc., Mississauga, ON, Canada). The activity was expressed as a percentage of control.”
# The SOD activity was measured based on the rate of reduction of nitroblue tetrazolium (2.24 mM) to formazan by xanthine oxidase (13.2 U/mL) at 560 nm. Eight concentrations of each cell extract ([…] protein/mL) or SOD standard (2–500 ng/mL) were used to obtain inhibition curves. Specifically, 20 µL of cell sample, or buffer (blank) was mixed with 160 µL of assay solution, and 20 µL of xanthine oxidase was added to initiate the reaction. The reduction of nitroblue tetrazolium to blue formazan by O2^−• generated in situ was followed at 560 nm. SOD activities were calculated and expressed as units per milligram of protein.
# [7] = Oxygen radical absorbance capacity (ORAC) assay; conditions: fluorescein 0.08 µM, AAPH 150 mM, 37 °C, 50 min, potassium phosphate buffer pH 7.4 75 mM, peptides 100 and 200 µM; triplicate, mean ± STDEV
# Method: The ORAC assay was performed as previously described. The decay of fluorescein (0.08 µM) by AAPH (150 mM) at 37 °C was recorded at 1 min intervals over 50 min using a BioTek™ FL × 800™ fluorescent microplate reader (Fisher Scientific, Nepean, ON, Canada) with fluorescence filters (excitation 485/20 nm, emission 528/20 nm). Potassium phosphate buffer (pH 7.4, 75 mM) was used to dissolve peptides (100 and 200 µM) and Trolox standards (6.25–100 µM). Data analysis was done with Gen5^TM software (Fisher Scientific, Nepean, ON, Canada), and ORAC values were expressed as µM Trolox Equivalent (TE)/µM peptide using the standard curve.
# [8] = cited from earlier work
# Method: Recent studies have, however, shown that, in addition to fibers and polyphenols, hydrolyzed proteins and peptides also contribute to the health promoting effect of cereals. […] Protein hydrolysates from oats, wheat, and rice have all shown antioxidant activities against common reactive oxygen species (ROS) in various systems. The peroxyl radical scavenging activity of oat proteins in the ... || Peroxyl radical (ROO^•) scavenging activities of P1–P7 were evaluated using the ORAC assay. […] ROO^• scavenging activities can be affected by sequences, molecular weights and the presence of amino acids that can form stable radical intermediates after donation of electrons or protons. The highest activities of P2 and P5 can be explained ...
# [9] = 50 µM peptide 24 h, then AAPH 24 h
# [10] = peptide from beta-lactoglobulin
compound,measurement,setting,value
"CC(C)(N=NC(C)(C)C(=N)N)C(=N)N.Cl.Cl [AAPH, 2,2′-azobis(2-methylpropionamidine) dihydrochloride, reference compound]",Increase of CAT activity,"[1]; treatment with AAPH alone, 24 h",~2 fold
same,Decrease of GSH,[2],58.1%
same,Decrease of GPx activity relative to NC,"[3]; HepG2 cells incubated with AAPH alone, 24 h",18.2%
CAAP [literature peptide from fish],Increase of ROS due to AAPH,[4],attenuated
"DVNNNANQLEPR [P7, oat protein derived peptide …, synthesized by GenScript]",Increase of viability of cells compared to PC,[5],8.3%
same,Cytoprotective effect against AAPH-induced damage,[5],cytoprotective
same,Further increase of CAT activity compared to PC cells,[1]; [9],90%
same,Effect on SOD activity compared to AAPH treated cells only (PC),[6],did not affect the activity
same,ORAC value (peroxyl radical scavenging activity),[7],0.14–0.61 µM TE/µM and 0.14 ± 0.04 µM TE/µM
same,Effect on GPx activity of AAPH-stressed cells,[3]; 50 µM peptide 24 h,had no effect
same,Effect on GPx activity of AAPH-stressed cells,[3]; 100 µM peptide 24 h,only suppressed the damage caused by AAPH
"FNDRLRQGQLL [P1, oat protein derived peptide …, synthesized by GenScript]",Increase of viability of cells compared to PC,[5],15.5%
same,Cytoprotective effect against AAPH-induced damage,[5],cytoprotective
same,Effect on CAT activity compared to PC cells,[1]; [9],no change was observed
same,Effect on CAT activity,"[1]; 100 µM peptide 24 h, then AAPH 24 h",not affected by the peptide concentration
same,Effect on SOD activity compared to AAPH treated cells only (PC),[6],did not affect the activity
same,ORAC value (peroxyl radical scavenging activity),[7],0.14–0.61 µM TE/µM
same,Effect on GPx activity of AAPH-stressed cells,[3]; 50 µM peptide 24 h,completely restored the activity
"GQTV [P3, oat protein derived peptide GQTV, synthesized by GenScript]",Cytoprotective effect against AAPH-induced damage,[5],no effect on oxidative damages
"GQTVFNDRLRQGQLL [P4, oat protein derived peptide …, synthesized by GenScript]",Cytoprotective effect against AAPH-induced damage,[5],no effect on oxidative damages
same,ORAC value (peroxyl radical scavenging activity),[7],0.14–0.61 µM TE/µM
MHIRL [literature peptide from beta-lactoglobulin],ORAC activity,[8]; [10],0.306 µM TE/µM
VCSV [literature peptide from fish],Increase of ROS due to AAPH,[4],attenuated
WYSLAMAASDI [literature peptide from beta-lactoglobulin],ORAC activity,[8]; [10],2.6 µM/µM
YAEERYPIL [literature peptide from egg white],ORAC activity,[8]; peptide from egg white,3.5 µM TE/µM

# Reference: publication PMC5187537, “Antioxidant Activity of Oat Proteins Derived Peptides in Stressed Hepatic HepG2 Cells” (Antioxidants, 2016)
